Data set [1] can be described thus: (§1) Cytotoxicity against human PANC1 cells assessed as reduction in cell viability after 24 hrs by MTT reduction assay. In kind it is functional, cell-based. The following applies: PANC-1, 24 h. (Tetrazolium assays rely on reduction of a dye to a coloured formazan, in cell work by metabolically active cells.)
Another data set concerns HaCaT. Nature of the data set: Cytotoxicity against human HaCaT cells assessed as reduction in cell viability after 24 hrs by MTT reduction assay. Type of data set: cell-based.
Data set [2] is described as follows: Selectivity ratio of IC50 for human HaCaT cells to IC50 for human PANC1 cells. In kind it is ADME, cell-based. The following applies: HaCaT cells versus PANC1 cells, read-out: Ratio IC50.
The test system of data set [3] is PANC-1. The data set is described as §1. In kind it is functional, cell-based.
Data set [4] has as its system PANC-1. The data set can be described thus: Cytoprotective activity in 1 hr GSH-pretreated human PANC1 cells assessed as increase in cell viability at 10 to 100 uM after 24 hrs by MTT reduction assay. Type of data set: functional, cell-based.
Data set [5] can be described thus: Antiproliferative activity against human PANC1 cells assessed as reduction in colonies at 15 uM after 15 days by colony assay. In kind it is functional, PANC-1. Details: scale not given: the % may be the effect or the level left.
Data set [6] can be described thus: Antiproliferative activity against human PANC1 cells assessed as reduction in colonies at 30 uM after 15 days by colony assay. Details: scale not given: the % may be the effect or the level left. In kind it is functional, PANC-1.
The nature of data set [7]: Antiproliferative activity against human PANC1 cells assessed as reduction in colonies after 15 days by colony assay. In kind it is functional, cell-based. As to conditions: PANC-1, 360 h.
Data set [8] has as its system PANC-1. The data set can be described thus: Reduction in cyclin D1 protein level in human PANC1 cells at 30 to 60 uM after 24 hrs by Western blot analysis. In kind it is functional, cell-based. Background: In western blotting, separated proteins are transferred to a membrane and probed.
The subject of data set [9] is PANC-1. Nature of the data set: Reduction in c-Myc protein level in human PANC1 cells at 30 to 60 uM after 24 hrs by Western blot analysis. In kind it is functional, cell-based.
Data set [10] has as its system PANC-1. The data set can be described thus: Reduction in p-RB at Ser795 protein level in human PANC1 cells at 30 to 60 uM after 24 hrs by Western blot analysis. Type of data set: functional, cell-based.
In data set [11] the test system is PANC-1. Nature of the data set: Reduction in AXL protein level in human PANC1 cells at 30 to 60 uM after 24 hrs by Western blot analysis. Type of data set: functional, cell-based.
Data set [12] concerns the target Tyrosine-protein kinase receptor UFO (Homo sapiens) (UniProt P30530). The data set can be described thus: Effect on AXL in human PANC1 cells assessed as increase in p-ERK at Thr202/Tyr 204 protein level at 30 to 60 uM after 24 hrs by Western blot analysis. Type of data set: cell-based. The following applies: PANC-1.
Data set [13] concerns PANC-1. Nature of the data set: Induction of apoptosis in human PANC1 cells assessed as increase in BAX/BCL-2 ratio at 30 to 60 uM after 24 hrs by Western blot analysis. In kind it is functional, cell-based.
Data set [14] concerns PANC-1. Nature of the data set: Induction of apoptosis in human PANC1 cells assessed as reduction in pro-caspase-3 level at 30 to 60 uM after 24 hrs by Western blot analysis. Type of data set: functional, cell-based.
Data set [15] concerns PANC-1. Nature of the data set: Induction of apoptosis in human PANC1 cells assessed as increase in cleaved PARP-1 level at 30 to 60 uM after 24 hrs by Western blot analysis. In kind it is functional, cell-based.
Data set [16] has as its system PANC-1. Nature of the data set: Induction of intracellular ROS production in human PANC1 cells at 1.5 to 3 uM after 1 hr using DCFH-DA by flow cytometry. In kind it is functional, cell-based.
A short description of data set [17]: Chemical reactivity under non-physiological condition at 25 mM using gluthatione as thiol nucleophile assessed as conjugate addition of GSH to compound after 24 hrs by 1H NMR spectroscopy. Type of data set: physicochemical. The following applies: 25000 µM.
The subject of data set [18] is PANC-1. Nature of the data set: Cytotoxicity against human PANC1 cells assessed as reduction in cell viability at 10 to 100 uM after 24 hrs by MTT reduction assay in presence of GSH. Type of data set: functional, cell-based.
Data set [19] is described as follows: Antiproliferative activity against human PANC1 cells assessed as reduction in colonies at 0.75 uM after 15 days by colony assay. In kind it is functional, PANC-1. Also noted: scale not given: the % may be the effect or the level left.
A short description of data set [20]: Antiproliferative activity against human PANC1 cells assessed as reduction in colonies at 1.5 uM after 15 days by colony assay. Also noted: scale not given: the % may be the effect or the level left. In kind it is functional, PANC-1.
Data set [21] concerns PANC-1. The data set can be described thus: Reduction in cyclin D1 protein level in human PANC1 cells at 1.5 to 3 uM after 24 hrs by Western blot analysis. In kind it is functional, cell-based.
In data set [22] the test system is PANC-1. Nature of the data set: Reduction in c-Myc protein level in human PANC1 cells at 1.5 to 3 uM after 24 hrs by Western blot analysis. In kind it is functional, cell-based.
Data set [23] relates to PANC-1. Nature of the data set: Reduction in p-RB at Ser795 protein level in human PANC1 cells at 1.5 to 3 uM after 24 hrs by Western blot analysis. Type of data set: functional, cell-based.
The test system of data set [24] is PANC-1. The data set can be described thus: Reduction in AXL protein level in human PANC1 cells at 1.5 to 3 uM after 24 hrs by Western blot analysis. In kind it is functional, cell-based.
Data set [25] deals with Tyrosine-protein kinase receptor UFO (Homo sapiens) (UniProt P30530). The data set can be described thus: Inhibition of AXL in human PANC1 cells assessed as inhibition of ERK phosphorylation at Thr202/Tyr 204 at 1.5 to 3 uM after 24 hrs by Western blot analysis. Type of data set: cell-based. As to conditions: PANC-1.
Data set [26] deals with PANC-1. Nature of the data set: Induction of apoptosis in human PANC1 cells assessed as increase in BAX/BCL-2 ratio at 1.5 to 3 uM after 24 hrs by Western blot analysis. In kind it is functional, cell-based.
Data set [27] has as its system PANC-1. The data set can be described thus: Induction of apoptosis in human PANC1 cells assessed as reduction in pro-caspase-3 level at 1.5 to 3 uM after 24 hrs by Western blot analysis. Type of data set: functional, cell-based.
The subject of data set [28] is PANC-1. Nature of the data set: Induction of apoptosis in human PANC1 cells assessed as increase in cleaved PARP-1 level at 1.5 to 3 uM after 24 hrs by Western blot analysis. In kind it is functional, cell-based.
Data set [29] concerns PANC-1. The data set can be described thus: Induction of intracellular ROS production in human PANC1 cells at 25 to 100 uM after 1 hr using DCFH-DA by flow cytometry. In kind it is functional, cell-based. In general terms: A flow cytometer gives signals particle by particle.
For data set [30], the target named is Tyrosine-protein kinase receptor UFO (Homo sapiens) (UniProt P30530). The data set can be described thus: Inhibition of AXL in human PANC1 cells assessed as reduction in HIF-1alpha expression at 1.5 to 3 uM after 24 hrs by Western blot analysis. Type of data set: cell-based. As to conditions: PANC-1.
Data set [31] shares this target. The data set can be described thus: Inhibition of AXL in human PANC1 cells assessed as reduction in VEGF level at 1.5 to 3 uM after 24 hrs by Western blot analysis. Type of data set: cell-based. As to conditions: PANC-1.

Activity calls are given as the source filed them. The rule behind the calls is not given here.

We go through twelve compounds from ChEMBL document CHEMBL3351649, “A new goniothalamin N-acylated aza-derivative strongly downregulates mediators of signaling transduction associated with pancreatic cancer aggressiveness” (Eur J Med Chem, 2014).

Tyrosine-protein kinase receptor UFO (Homo sapiens), sequence (P30530 whole entry): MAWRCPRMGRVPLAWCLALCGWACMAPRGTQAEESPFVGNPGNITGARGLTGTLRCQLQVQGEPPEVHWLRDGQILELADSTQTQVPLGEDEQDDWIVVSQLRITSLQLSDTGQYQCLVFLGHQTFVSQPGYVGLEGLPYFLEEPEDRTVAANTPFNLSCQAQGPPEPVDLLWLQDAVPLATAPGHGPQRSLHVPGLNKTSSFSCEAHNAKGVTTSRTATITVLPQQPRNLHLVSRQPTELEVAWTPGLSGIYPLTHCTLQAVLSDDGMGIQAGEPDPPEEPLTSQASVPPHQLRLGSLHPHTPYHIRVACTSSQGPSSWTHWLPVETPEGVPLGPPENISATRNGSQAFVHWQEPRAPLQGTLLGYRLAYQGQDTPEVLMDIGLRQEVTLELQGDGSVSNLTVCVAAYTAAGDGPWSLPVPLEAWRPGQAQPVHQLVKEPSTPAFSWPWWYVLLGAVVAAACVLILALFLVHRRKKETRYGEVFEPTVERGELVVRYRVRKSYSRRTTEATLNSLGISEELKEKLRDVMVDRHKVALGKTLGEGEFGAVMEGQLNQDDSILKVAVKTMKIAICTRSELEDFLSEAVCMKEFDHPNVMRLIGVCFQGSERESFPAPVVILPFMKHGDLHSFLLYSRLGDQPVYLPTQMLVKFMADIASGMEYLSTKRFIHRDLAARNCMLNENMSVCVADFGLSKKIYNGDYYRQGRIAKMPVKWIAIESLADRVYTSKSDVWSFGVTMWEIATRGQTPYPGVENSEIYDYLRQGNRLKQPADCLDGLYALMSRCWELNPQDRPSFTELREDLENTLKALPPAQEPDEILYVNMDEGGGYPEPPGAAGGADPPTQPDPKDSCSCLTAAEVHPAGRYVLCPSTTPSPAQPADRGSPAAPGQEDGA

Regarding `COc1cc(/C=C/C(=O)N2CCC=CC2=O)cc(OC)c1OC` [PIPLARTINE], the IC50 was 3.2 µM in data set [1] and 16 µM in the data set on HaCaT. Further, the selectivity ratio in data set [2] was found to be 5.
Consider `C/C=C/C(=O)N1C(=O)C=CCC1/C=C/c1ccccc1` (configuration not stated), for which, in [1], the IC50 came out at 4.2 µM.
In the case of `O=C1C=CCC(/C=C/c2ccccc2)N1C(=O)CCc1ccc(O)c(O)c1` (configuration not stated), the IC50 in data set [1] was 6.8 µM.
`O=C1C=CC[C@H](/C=C/c2ccccc2)O1` [GONIOTHALAMIN]: the IC50 came out at 65 µM in data set [1], 28.6 µM in the data set on HaCaT and 65 µM in data set [7]. In addition, the Activity entry in the data set with PANC-1 [3] is “Dose-dependent effect”; in [5], 50%; in data set [6] it was 70%; in data set [17] it was “Active”. In addition, in data set [2], the selectivity ratio came to 0.44. Further, the result (in the data set with PANC-1 [4]; with PANC-1 [8]; with PANC-1 [10]; in the data set with PANC-1 [11]; in data set [12]; with PANC-1 [13]) was Active. The outcome in the data set on PANC-1 [14], with PANC-1 [15] and in the data set on PANC-1 [16] was Active. Moreover, the outcome in the data set on PANC-1 [9] was inactive.
As to `O=C1C=CCC(/C=C/c2ccccc2)N1C(=O)/C=C/c1ccc(O)c(O)c1` (configuration not stated), the IC50 in data set [1] was found to be 5.7 µM.
In the case of `COC(=O)N1C(=O)C=CCC1/C=C/c1ccccc1` (configuration not stated), in data set [1], the IC50 was 53.7 µM. Besides, the Activity result in the data set on PANC-1 [3] was “Dose-dependent effect”.
For `COc1cc(/C=C/C(=O)N2C(=O)C=CCC2/C=C/c2ccccc2)cc(OC)c1OC` (configuration not stated), the figures for the IC50 (in data set [1]; in the data set on HaCaT; in data set [7]) were 2.7 µM, 8.5 µM and 2.7 µM, respectively. Moreover, in data set [2], the selectivity ratio amounted to 3.14. Moreover, the Activity entry in the data set on PANC-1 [18] is “Dose-dependent effect”; in data set [19], 40%; in data set [20] it was 90%; in data set [17], “Active”. Further, the result in the data set with PANC-1 [21], with PANC-1 [22], in the data set on PANC-1 [23], with PANC-1 [24], with PANC-1 [26] and in the data set on PANC-1 [27] was Active. In addition, the result in the data set with PANC-1 [28] and with PANC-1 [29] was Active. Further, the inhibition result in [25], in data set [30] and in data set [31] was “Active” each time.
As for `COc1cc(/C=C/C(=O)N2C(=O)C=CCC2/C=C/c2ccccc2)ccc1O` (configuration not stated), the IC50 in [1] came out at 15.6 µM.
Same read-out and setting: for `O=C1C=CCC(/C=C/c2ccccc2)N1C(=O)/C=C/c1ccccc1` (configuration not stated) the value was 16.3 µM.
Consider `O=C1C=CCC(/C=C/c2ccccc2)N1` (configuration not stated), for which the IC50 in data set [1] is > 100 µM. In data set [17], the Activity result was “Not Active”.
Consider `CC(=O)N1C(=O)C=CCC1/C=C/c1ccccc1` (configuration not stated), for which the IC50 in data set [1] was determined as 42.3 µM. For the same compound, the Activity result with PANC-1 [3] was “Dose-dependent effect”.
Turning to `C=CC(=O)N1C(=O)C=CCC1/C=C/c1ccccc1` (configuration not stated), the IC50 in data set [1] is 8.1 µM.

One may read the IC50 as the concentration at which inhibition is half-maximal.
